Counter-ions that a name gives are not always drawn. Like-named read-outs stand apart in the source and are kept apart here.
What was measured:
[1] = pharmacokinetic investigation of intravenous administration in mice; assay type: in vivo; settings: mouse; male mice, intravenous injection, plasma
Procedure: Male mice were injected intravenously with the compound of the present disclosure, and the concentration of the unchanged compound in plasma and the concentration of the metabolite of dezocine hydrochloride were measured after the administration.

δ opioid receptor = δ opioid receptor (Homo sapiens, UniProt P41143); assay: radioisotope ligand competitive binding assay, δ opioid receptor (DOR); settings: [3H]-DADLE 0.5 nM, cell membrane of stably transfected cells; read-out: δ IC50
Text: (§1) Through the radioisotope ligand competitive binding assay, IC50 of the compound was used as an indicator to evaluate the affinity of the compound to κ and δ opioid receptors.
(§2) (1) Reagents • The cell membrane was extracted from stably transfected cells constructed by WuXi AppTec, Shanghai. • 3H-diprenophrine (PerkinElmer, Cat: NET1121250UC, Lot: 2143599) • 3H-DAMGO (PerkinElmer, Cat: NET902250UC, Lot: 2139100) • 3H-DADLE (PerkinElmer, Cat: NET648250UC, Lot: 2060549) • Tris base (Sigma, Cat: T6066-1KG), prepare 1M stock and adjust pH to 7.4. • 0.5M EDTA (Invitrogen, Cat: 15575-038) • 1M MgCl2 (Sigma, Cat: M1028-100 ml) • PEI (Poly ethyleneimine) (Sigma, Cat: P3143) • Microscint 20 cocktail (PerkinElmer, Cat: 6013329) • Naltrindole (Sigma, Cat; N115) • (±)trans-U-50488 (Sigma, Cat: D8040) • DAMGO (Sigma, Cat: E7384)
(§3) (1) 1 μL of the test compounds, negative control (i.e., DMSO) and positive control (i.e., non-specific binding well compound), after being prepared, were respectively transferred to a 96-well plate;
(§4) (2) 99 μL of the prepared opioid receptor membrane protein was added to each well of the 96-well plate containing 1 μL of the compound;
(§5) (3) 100 μL of 2× corresponding radioisotope ligand was added to each well;
(§6) (4) The plate was placed on a shake and incubated at room temperature for 1 hour;
(§7) (5) Each well of the GF/C plate was soaked with 50 μL of 0.3% PEI for at least half an hour in advance;
(§8) (6) After the incubation was finished, the GF/C plate was washed with plate washing buffer once by using Harvest. Then, the cell membranes in the 96-well plate were collected onto the GF/C plate using Harvest, and the GF/C plate was washed four times with the plate washing buffer, each time about 250 μL;
(§9) (7) The GF/C plate was placed in an oven at 50° C. for 1 hour;
(§10) (8) The bottom of the GF/C plate was sealed with a plate sealing film, 50 μL of Microscint-20 scintillation fluid was added to each well, and then the plate was sealed with a transparent sealing film for microplate;
(§11) (9) The radioactive signal value CPM was read using MicroBeta2;
(§12) (10) The data was analyzed with Prism 5. The percentage inhibition rate was calculated with the calculation formula: % Inh=(1-Background subtracted Assay value/Background subtracted HC value)*100.

μ opioid receptor = μ opioid receptor (Homo sapiens, UniProt P35372); assay: radioisotope ligand competitive binding assay, μ opioid receptor (MOR); settings: [3H]DAMGO 0.5 nM, cell membrane of stably transfected cells; read-out: μ IC50
κ opioid receptor = κ opioid receptor (Homo sapiens, UniProt P41145); assay: radioisotope ligand competitive binding assay, κ opioid receptor (KOR); settings: [3H]Diprenorphine 0.3 nM, cell membrane of stably transfected cells; read-out: κ IC50
Text: as §1, §2, §3, §4, §5, §6, §7, §8, §9, §10, §11, §12

[2] = test system: pain induced by heat radiation in mice; assay: pain induced by heat radiation in mice (light and heat-induced pain); assay type: in vivo; settings: for ED50: Mus musculus; for analgesic effect (comparison in words): four mouse models of pain (heat radiation and hot plate), versus dezocine
Text: (§13) A mode of pain induced by heat radiation in mice and a mode of pain induced by hot plate in mice were used to evaluate the analgesic intensity of the test compounds.

[3] = test system: pain induced by hot plate in mice; assay: pain induced by hot plate in mice; assay type: in vivo; settings: Mus musculus; male mice
Text: as §13

[4] = female mice, read-out: Light and heat-induced pain ED50 Female
[5] = male mice, read-out: Light and heat-induced pain ED50 Male

Compound	half-life [1] [min]	IC50 (δ opioid receptor) [nM]	IC50 (μ opioid receptor) [nM]	IC50 (κ opioid receptor) [nM]	ED50 [2, 4] [mg/kg]	ED50 [2, 5] [mg/kg]	Light and heat-induced pain ED95 Female ([2]; female mice) [mg/kg]	Light and heat-induced pain ED95 Male ([2]; male mice) [mg/kg]	ED50 [3] [mg/kg]	analgesic effect (comparison in words) [2]
CCCCN[C@H]1[C@H]2CCCCC[C@]1(C)c1cc(O)ccc1C2 [Hydrochloride of compound 21]	76.2	10 to 100	< 10	10 to 100	0.068	0.12	0.083	0.18	0.15	–
C[C@@]12CCCCC[C@@H](Cc3ccc(O)cc31)[C@@H]2N (relative stereo) [dezocine hydrochloride, (−)-[5R-(5a,11a,13S*)]-13-amino-5,6,7,8,9,10,11,12-octahydro-5-methyl-5,11-methylene benzocyclodecen-3-ol, reference compound]	54.2	–	–	–	–	–	–	–	–	–
C[C@@]12CCCCC[C@@H](Cc3ccc(O)cc31)[C@@H]2NCc1ccccc1 [Hydrochloride of compound 26]	81	< 10	< 10	< 10	0.025	0.017	0.043	0.021	0.045	strongest analgesic effect
CCCCCN[C@H]1[C@H]2CCCCC[C@]1(C)c1cc(O)ccc1C2 [Hydrochloride of compound 22]	74.4	10 to 100	< 10	10 to 100	0.18	0.13	0.26	0.26	0.3	stronger than dezocine
C[C@@]12CCCCC[C@@H](Cc3ccc(O)cc31)[C@@H]2NCC1CC1 [Hydrochloride of compound 24]	–	1000 to 10000	10 to 100	100 to 1000	–	–	–	–	–	–
CC(C)N[C@H]1[C@H]2CCCCC[C@]1(C)c1cc(O)ccc1C2 [Hydrochloride of compound 23]	–	1000 to 10000	10 to 100	100 to 1000	–	–	–	–	–	–
C[C@@]12CCCCC[C@@H](Cc3ccc(O)cc31)[C@@H]2N1CCCC1 [Hydrochloride of compound 29]	–	1000 to 10000	10 to 100	1000 to 10000	–	–	–	–	–	–
COc1ccc2c(c1)[C@@]1(C)CCCCC[C@@H](C2)[C@@H]1N1CCCC1 [Hydrochloride of compound 12]	–	> 10000	1000 to 10000	> 10000	–	–	–	–	–	–
COc1ccc2c(c1)[C@@]1(C)CCCCC[C@@H](C2)[C@@H]1N(C)C [Hydrochloride of compound 11]	–	> 10000	100 to 1000	> 10000	–	–	–	–	–	–
CCCCN[C@H]1[C@H]2CCCCC[C@]1(C)c1cc(OC)ccc1C2 [Hydrochloride of compound 4]	–	1000 to 10000	10 to 100	1000 to 10000	–	–	–	–	–	–
COc1ccc2c(c1)[C@@]1(C)CCCCC[C@@H](C2)[C@@H]1NCCc1ccccc1 [Hydrochloride of compound 8]	–	> 10000	10 to 100	> 10000	–	–	–	–	–	–
C[C@@]12CCCCC[C@@H](Cc3ccc(OCc4ccccc4)cc31)[C@@H]2NCc1ccccc1 [Hydrochloride of compound 39]	–	100 to 1000	< 10	100 to 1000	–	–	–	–	–	–
CCOc1ccc2c(c1)[C@@]1(C)CCCCC[C@@H](C2)[C@@H]1NC [Hydrochloride of compound 37]	–	> 10000	1000 to 10000	1000 to 10000	–	–	–	–	–	–
COc1ccc2c(c1)[C@@]1(C)CCCCC[C@@H](C2)[C@@H]1NCC1CC1 [Hydrochloride of compound 7]	–	> 10000	100 to 1000	100 to 1000	–	–	–	–	–	–
CCCCCN(C)[C@H]1[C@H]2CCCCC[C@]1(C)c1cc(OC)ccc1C2 [Hydrochloride of compound 16]	–	> 10000	100 to 1000	> 10000	–	–	–	–	–	–
C[C@@]12CCCCC[C@@H](Cc3ccc(O)cc31)[C@@H]2NCCc1ccccc1 [Hydrochloride of compound 25]	99	100 to 1000	< 10	100 to 1000	1.15	0.74	2.88	1.18	–	–

From US20220117913A1, “DEZOCINE DERIVATIVE AND MEDICAL USE THEREOF” (YANGTZE RIVER PHARMACEUTICAL GROUP CO., LTD., priority 2019, published 2022)
